In patent US20250178051A1, “METHODS OF CONTROLLING MICROBIOLOGICAL PROCESSES FOR IN SITU CONTAMINANT TREATMENT” (priority 2022, published 2025):

How the values were obtained:
[1] = test system: Mycobacterium austroafricanum JOB5; experiment: TCE cometabolism and biomass production of pure culture after acetylene exposure; type: cell-based; details: for TCE consumption rate: 5% v/v acetylene, 50 μM TCE
Text: (§1) Aerobic cometabolism of TCE is a viable methodology for TCE removal in large diffuse contaminant plumes. A pure culture of the known aerobic cometabolic TCE degrader, Mycobacterium austroafricanum JOB5 (formerly known as Mycobacterium vaccae JOB5) and a mixed culture enriched from an uncontaminated soil in mineral medium using propane and oxygen as growth substrates were used to test the efficiency of acetylene in reducing biomass growth rate (e.g., a proxy for bioclogging). The mixed culture was created through serial transfers from the original soil microcosms.
(§2) The pure and mixed cultures were then exposed to 50 μM TCE to verify their capacity to aerobically cometabolically degrade TCE. Once their capability to degrade TCE was verified, both cultures were grown in 2 L bottles and fed oxygen and propane until the optical density at 600 nm stabilized at ˜0.2 for multiple days. Then, the two cultures were exposed to acetylene at 5% v/v for varying lengths of time (no exposure (0), 1, 2, 4 and 8 days). The dissolved acetylene concentration in the 2 L bottles was 2.2 mmol/L.
(§3) After the set acetylene exposure time, culture was extracted, and triplicate bottles were started with 50 μM TCE and a pure oxygen headspace. The cultures were then monitored for propane (residual and added) and oxygen consumption, TCE degradation, carbon dioxide production, biomass production, and pH change.

[2] = test system: soil-derived propane-consuming mixed culture; experiment: TCE cometabolism and biomass production of mixed culture after acetylene exposure; type: cell-based, mixed culture enriched from an uncontaminated soil; details: for TCE consumption rate: 5% v/v acetylene, 50 μM TCE
Text: as §1, §2, §3

[3] = test system: Mycobacterium austroafricanum JOB-5 (JOB-5) and a mixed culture, named COMET1; experiment: Soil columns with contaminated site soil and groundwater, flow through mode, acetylene-containing groundwater; design: species or system Mycobacterium austroafricanum JOB-5 and COMET1 mixed culture; details: soil columns, propane fed and acetylene inhibited, two three-hour pulses per day at 0.2 mL/min
Description: Groundwater was pumped at a 2-Day HRT (0.2 mL/min) from six pumps programmed to automatically turn on and turn off to deliver groundwater of varying chemistries to the soil columns. For the Propane-Fed (pumps 2-3) and the Propane-Fed and Acetylene-Inhibited treatments (pumps 4-6) which had multiple pumps feeding into one line PVC plastic check valves were installed at line splitting locations to avoid backflow to other feeder bags when pumps automatically started or stopped pumping according to the schedule presented in FIG. 5.
Acetylene or propane from a gas tank was bubbled into groundwater in a closed container in the lab. That groundwater was then pumped from closed container to a sealable Tedlar bag. The Tedlar bag was then connected to the pump which was controlled by a timer to deliver two three-hour pulses of acetylene containing groundwater at 0.2 mL/min per day. The pump effectively serves as a seal for the Tedlar bag as the tubing is pinched at one location to create suction.
For propane, 0.5 L of propane was bubbled through 10 L water for at least four hours. That propane-containing water was then pumped into a Tedlar bag. For the treatments which received propane-containing water, the water was pumped into the columns at 0.2 mL/min to 6 hrs/day (two three-hour pulses). For acetylene, 0.5 L of acetylene was bubbled through 10 L water for at least four hours. That acetylene-containing water was then pumped into a Tedlar bag. For the treatments which received acetylene-containing water, the water was pumped into the columns at 0.2 mL/min to 6 hrs/day (two three-hour pulses) […]
Phase I involves bioaugmentation in soil columns in batch mode. […] Batches were continued until either propane was not detected in the groundwater or propane consumption slowed. […]
Phase II involves flow through mode. […] These gas syringes were then analyzed for TCE, propane, and acetylene via gas chromatography with flame ionization detection (GC-FID) and for oxygen and carbon dioxide via assessment of a thermal conductivity detector (TCD). […]

[4] = as acetylene exposure times increased (1-8 days), 5% v/v

C#C [acetylene]
rate of TCE degradation [1, 4]: decreased
rate of biomass production (optical density) [1, 4]: decreased
TCE consumption rate ([1]; day 1 of acetylene exposure): 0.42 μmol TCE/(L day)
TCE consumption rate ([1]; day 2 of acetylene exposure): 0.63 μmol TCE/(L day)
TCE consumption rate ([1]; day 4 of acetylene exposure): 0.36 μmol TCE/(L day)
TCE consumption rate ([1]; day 8 of acetylene exposure): 0.07 μmol TCE/(L day)
rate of TCE degradation [2, 4]: decreased
rate of biomass production (optical density) [2, 4]: decreased
TCE consumption rate ([2]; day 1 of acetylene exposure): 0.45 μmol TCE/(L day)
TCE consumption rate ([2]; day 2 of acetylene exposure): 0.54 μmol TCE/(L day)
TCE consumption rate ([2]; day 4 of acetylene exposure): 0.52 μmol TCE/(L day)
TCE consumption rate ([2]; day 8 of acetylene exposure): 0.25 μmol TCE/(L day)
TCE degradation (cumulative TCE removal) [3]: slowed
biomass production (total organic carbon as proxy) [3]: slowed
propane consumption (cumulative) [3]: slowed
